Experimental data: US20250027085A1, “COMPOSITIONS AND METHODS FOR TREATING ALZHEIMER'S DISEASE UTILIZING A TRANSCRIPTIONAL MASTER REGULATOR OF THE RETROMER COMPLEX” (THE TRUSTEES OF COLUMBIA UNIVERSITY IN THE CITY OF NEW YORK, priority 2022, published 2025)
“Also recorded” adds a separate entry of the source.

Key:
rat hippocampal neurons [1] = experiment: RNA-seq of Aβ42-challenged neurons with dovitinib co-treatment; format: cell-based
Experimental: Basal expression levels were measured in vehicle-treated cells. DEGs identified in Aβ42 condition are compared against their expression values in neurons co-treated with dovinitib. Individual datapoints show fold-changes over baseline (log2-transformed) of n=2 biological replicates. Aβ42 and dovitinib were applied for 24 hours before RNA collection. […] FGF, fibroblast growth factor.
Prior to RNA collection, neuronal cultures were washed with ice-cold HBSS (Thermo Fischer) and lysed with TRIzol reagent (#15596026, Thermo Fisher) by scrapping. The reaction was allowed to proceed on ice for 5 minutes, at which point samples were centrifuged at 12,000 g and 4° C. and supernatants transferred to new tubes before a 1:1 (v/v) dilution with molecular biology-grade 100% ethanol (Millipore Sigma). The RNA extraction protocol was continued using the Direct-zol RNA MicroPrep kit (Zymo Research), in accordance to manufacturer's instructions, and included an on-column DNA digestion step with DNase I. RNA was eluted in 30 μl of water. RNA-seq library preparation and sequencing reactions were conducted at GENEWIZ, Inc. (South Plainfield, NJ, USA). RNA sequencing libraries were prepared using the NEBNext Ultra RNA Library Prep Kit for Illumina following manufacturer's instructions (NEB). Briefly, mRNAs were first enriched with oligo(dT) beads. […] The sequencing libraries were validated on an Agilent TapeStation (Agilent Technologies) and quantified using a Qubit 2.0 Fluorometer (Life Technologies) as well as quantitative PCR (KAPA Biosystems). […] RNA-seq sequencing data were processed and analyzed within the Galaxy web platform, using the public server at usegalaxy.org. First, library adapters and low-quality reads were removed using Trimmomatic (version 0.38) with the following settings: initial ILLUMINACLIP step to cut adapters and other Illumina-specific sequences from the reads, seedMismatches=2, palindromeClipThreshold=30, simpleClipThreshold=10, minAdapterLength=8, keepBothReads=True, AVGQUAL >20, SLIDINGWINDOW: windowSize=4 and requiredQuality=20, and MINLEN=50. […]

[2] = Schafer et al., 2016; cited from earlier work
neurons = conditions: Rodriguez et al., 2021; cited from earlier work
[3] = test system: CREB3L2-ATF4 heterodimers; experiment: Proximity ligation assay (PLA) of axonal CREB3L2-ATF4 heterodimers; format: cell-based, rat; conditions: emetine 100 nM to axons, last 60 minutes of 12-hour Aβ42 protocol
Experimental: Hippocampi were dissected from embryonic day (E) 16-18 rat embryos obtained from pregnant Sprague-Dawley dams (Envigo). All animal procedures were approved by the Institutional Animal Care and Use Committee at Columbia University. Cell dissociation was performed using TripLE Express. Neurons (50,000-60,000 per microfluidic chamber) were plated on 0.1 mg ml^-1 poly-D-lysine (Millipore Sigma) and 2 μg ml^-1 laminin (Bio-Techne) coated substrates and grown in Neurobasal supplemented with 10% fetal bovine serum, 2 mM L-glutamine, 1 mM sodium pyruvate, and antibiotics (50 U ml^-1 penicillin-streptomycin). Tripartite microfluidic chambers were produced with Dow Corning Sylgard 184 Silicone Encapsulant Clear Kit (10:1 mix ratio; Ellsworth Adhesives) cured at […] for at least 4 hours following published protocols (Park et al. 2006; Desai et al. 2009). Chamber design incorporated two sets of 200-μm-long microgroove barriers to exclude crossing of cell bodies and dendrites (Taylor et al. 2005; […] et al. 2009). After 24 hours, medium was changed to Neurobasal containing 1×B27 and 2 mM L-glutamine. Subsequent medium changes (half volumes) were performed at DIV4 and thereafter every 3-5 days. To prevent glial cell proliferation, medium changes included 5-flurodeoxyuridine and uridine (final concentration […]; Millipore Sigma) after DIV4. […]

[4] = biological target: T1, GFP-tagged H. sapiens CREB3L2, full-length form (UniProt Q70SY1)
T1 sequence: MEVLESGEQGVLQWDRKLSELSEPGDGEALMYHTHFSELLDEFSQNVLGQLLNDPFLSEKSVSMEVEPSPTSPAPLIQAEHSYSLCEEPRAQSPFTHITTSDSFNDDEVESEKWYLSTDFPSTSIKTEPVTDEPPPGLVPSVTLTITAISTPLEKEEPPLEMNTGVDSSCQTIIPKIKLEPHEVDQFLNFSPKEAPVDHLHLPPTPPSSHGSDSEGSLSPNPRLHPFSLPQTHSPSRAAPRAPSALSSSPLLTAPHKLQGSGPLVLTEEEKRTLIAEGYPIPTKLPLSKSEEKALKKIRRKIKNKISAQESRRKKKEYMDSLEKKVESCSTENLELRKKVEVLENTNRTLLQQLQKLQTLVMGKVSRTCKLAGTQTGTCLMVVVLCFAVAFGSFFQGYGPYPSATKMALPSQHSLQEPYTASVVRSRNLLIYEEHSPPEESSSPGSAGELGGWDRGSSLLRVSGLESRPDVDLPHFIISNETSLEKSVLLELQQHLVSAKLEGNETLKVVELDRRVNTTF

[5] = biological target: GFP-tagged CREB3L2-S1P- (full-length form with mutated S1P site) (UniProt Q70SY1)
rat hippocampal neurons [6] = experiment: Neuronal viability (RealTime-Glo MT) after 48-hour Aβ42 stimulation; format: cell-based; conditions: lentiviral delivery at DIV1; Aβ42 750 nM 48 hours; relative to wild-type neurons; Aβ42/vehicle ratios
Experimental: Plots show individual measurements and mean±SEM of n=3 biological replicates. For each background, data are presented as Aβ42/vehicle ratios. ATF4 aZIP: *P-value=0.0167; CREB3L2 aZIP: *P-value=0.0137; unpaired t-tests.
Specific aZIPs sequences were synthesized by Genewiz. CREB3L2 aZIP: 5′-[…]-3′. (SEQ ID NO: 68) ATF4 aZIP: 5′-[…]-3′. […] Lentiviral particles were delivered at DIV1, 24 hours post-dissection. Neuronal cultures were allowed to mature until DIV15 and treated with Aβ42 at 750 nM for 48 hours. Cell viability was assayed using RealTime-Glo MT Cell Viability Assay (Promega) following manufacturer's guidelines; reaction was allowed to proceed for 1 hour before taking luminescence readings (SpectraMax iD5, Molecular Devices). Also see FIGS. 34A-34D.

With `CN1CCN(c2ccc3nc(-c4c(N)c5c(F)cccc5[nH]c4=O)[nH]c3c2)CC1` [dovitinib] the “number of genes surpassing 0.25 differences in head-to-head comparisons” value (rat hippocampal neurons [1]; 24-hour Aβ42 + dovitinib vs Aβ42) was 30, the “number of Aβ42 DEGs (of 203) showing corrective shifts 0.10 with dovitinib co-treatment” value (rat hippocampal neurons [1]; 24-hour Aβ42 + dovitinib, log fold-change, n=2) was 131 and the “Vgf log fold-change [Aβ42+dovitinib]” value (rat hippocampal neurons [1]; 24 hours, Aβ42 alone log fold-change 0.57, over vehicle baseline) was 0.07. For the same molecule, the “crossing of the blood-brain barrier” value [2] was “can cross” and the toxicity to neurons (neurons) was “non-toxic”.

For `CC[C@H]1CN2CCc3cc(OC)c(OC)cc3[C@@H]2C[C@@H]1C[C@H]1NCCc2cc(OC)c(OC)cc21` [emetine], the “Aβ42-induced upregulation of axonal CREB3L2-ATF4 heterodimers (PLA)” value [3] was “completely prevented; also recorded: limited their association in axons to control levels”.

With site 1 protease (S1P) the “CREB3L2 proteolytic cleavage (western blot, coexpression in HEK293)” value (shortened to “CREB3L2 proteolytic cleavage”) [4] was “Coexpression of S2P, but not S1P, together with full-length GFP-CREB3L2 in HEK293 cells is sufficient to promote the activation of CREB3L2”.

For site 2 protease (S2P), the “CREB3L2 proteolytic cleavage” value [5] was “Preventing S1P processing by eliminating its cleavage site does not impede S2P-mediated processing” and the “CREB3L2 proteolytic cleavage” value [4] was “Coexpression of S2P, but not S1P, together with full-length GFP-CREB3L2 in HEK293 cells is sufficient to promote the activation of CREB3L2”.

B1: ATF4 aZIP: dominant-negative acidic-ZIP peptide targeting ATF4, encoded by nucleotide SEQ ID NO: 69, delivered by lentivirus (protein)
peptide: MDYKDDDDKHMASMTGGQQMGRDPDLEQRAEELARENEELEKEAEELEQELAELTGECKELEKKNEALKEKADSLAKEIQYLKDLIEEVRKARGKKRVP
For B1, the “cell viability in neurons exposed to Aβ42” value (rat hippocampal neurons [6]) was “significantly improved”.

B2: CREB3L2 aZIP: dominant-negative acidic-ZIP peptide targeting CREB3L2, encoded by nucleotide SEQ ID NO: 68, delivered by lentivirus (protein)
peptide: MDYKDDDDKHMASMTGGQQMGRDPDLEQRAEELARENEELEKEAEELEQELAELRKKVEVLENTNRTLLQQLQKLQTLVMGKVSRTCKLAGTQTGTCLMVVVL
For B2, the “cell viability in neurons exposed to Aβ42” value (rat hippocampal neurons [6]) was “significantly improved”.
